The target of assay [1] is T1, LPA2 (Homo sapiens, UniProt Q9HBW0). The assay is described as follows: LPA receptor-mediated Ca2+ mobilization assay, LPA2 (RH7777 cells stably expressing LPA2). Format: cell-based. The arrangement: expressed in transfected cells. The note with it: Ca2+ transients, RH7777 cells stably expressing LPA2; for EC50: read-out: EC50 (μM) (RH7777). On the procedure:
Similarity searches were performed separately using each fingerprint to quantitate similarity. Hits meeting the 80% similarity threshold from each search were ranked based on the Tanimoto coefficient measure of similarity to a target molecule NSC12404, and the top 75 unique hits from each fingerprint search were selected for further analysis. […] This selected a diverse subset of 27 compounds for biological evaluation by choosing the middle compounds in each cluster. These 27 compounds were tested in Ca^2+ mobilization assays at a concentration of 10 μM using stable cell lines individually expressing LPA2 and also in vector-transfected control cells. Hits activating LPA2 were further tested using cells expressing the other established and putative LPA GPCRs. […] They arbitrarily selected GRI977143 for further characterization in cell-based assays.
The newly-synthesized compounds were tested for their ability to induce Ca^2+ transients in RH7777 cells stably expressing the LPA2 receptor.
The cells were loaded with Fura-2-acetoxymethyl esther (Fura-2/AM) in Krebs buffer containing 0.01% pluronic acid for 30 min and rinsed with Krebs buffer before measuring Ca^2+ mobilization. The ratio of peak emissions at 510 nm after 2 min of ligand addition was determined for excitation wavelengths of 340 nm/380 nm. All samples were run in quadruplicate. […] The half maximally effective concentration (EC50), and inhibitory constant (Ki) values were calculated by fitting a sigmoid function to dose-response data points using KaleidaGraph software (version 4.1, Synergy Software; […]).
Mouse embryonic fibroblast (MEF) cells were isolated from E13.5 LPA1&2 double knockout (DKO) embryos. MEFs were transduced with empty vector or LPA2-containing lentiviruses and selected with 1.5 μg/ml puromycin. Cells were maintained in Dulbecco's modified Eagle medium (DMEM) supplemented with 10% (V/V) fetal bovine serum (FBS), 2 mM L-glutamine, 100 U/mL penicillin, and 100 μg/mL streptomycin. Serum-free medium contained 0.1% (W/V) BSA in DMEM. The rat intestinal epithelial cell line 6 (IEC-6) was obtained from the American Type Culture Collection (Rockville, Md.) at passage 13; passages 16-21 were used in all experiments. IEC-6 cells were maintained in a humidified 37° C. incubator in an atmosphere of 90% air and 10% CO2. Growth medium consisted of DMEM supplemented with 5% heat inactivated FBS, 10 μg/mL insulin, and 50 μg/mL gentamycin. The composition of the serum-starvation medium was the same as that of the full growth medium except that it contained no FBS. The McArdle rat hepatoma cell line (RH7777) stably expressing LPA2 receptors was a gift from Dr. Fumikazu Okajima (Gunma University, Maebashi, Japan). RH7777 cells stably expressing LPA1 or LPA3 receptors were generated in-house and had been characterized earlier. Wild type and LPA receptor (LPAR) stably transfected RH7777 cells were grown in DMEM supplemented with 10% FBS and 2 mM L-glutamine in the presence of 250 μg/ml G418. Chinese hamster ovary (CHO) cells stably expressing either vector or LPA4 receptor were a kind gift from Dr. Takao Shimizu (Tokyo University; Tokyo, Japan). Cells were cultured in Ham's F12 medium containing 10% FBS, 2 mM L-glutamine, and 350 μg/ml G418. Rat neuroblastoma cells (B103) were transduced with the lentivirus harboring wild type of FLAG-LPA5 and selected with puromycin to establish the stable cell lines. The stable cells were maintained in DMEM supplemented with 10% FBS and 0.4 μg/ml puromycin. GPR87- and P2Y10-expressing CHO cells and vector-transfected control cells were a gift from Dr. Norihisha Fujita (Ritsumeikan University; Shiga, Japan). The highly invasive MM1 rat hepatoma cells (gift from Dr. Michiko Mukai, Osaka University, Japan) were grown in suspension in DMEM supplemented with 10% (V/V) FBS, 2 mM L-glutamine, 100 U/mL penicillin, and 100 μg/mL streptomycin.

A further assay concerns C57BL/6 mice. The assay is described as follows: Radiation-induced mortality, 15.68 Gy PBI-BM5. The format is in vivo, mouse. Particulars: 15.68 Gy PBI-BM5, single 1 mg/kg s.c. 24 h after irradiation. On the procedure: 10-week old female C57BL/6 mice were exposed to a 15.68 Gy (˜LD60/8-10) dose of γ-irradiation from a ^137Cs Source. Twenty four hours after irradiation mice were treated with a single 200 μL subcutaneous injection of 1 mg/kg of the test compounds 5b, 7a, and 7b dissolved in 0.8% DMSO, 1% ethanol, 2% propanediol in PBS buffer. The animals were observed daily and provided with food and water ad libitum. Form day four onward the mice also were provided with a gel food diet. The study endpoint was mortality by day 20.

Assay [2] relates to LPA2 DKO MEF cells. The experiment in a line: Adriamycin-induced DNA fragmentation in LPA2 DKO MEF and EV DKO MEF cells. Format: cell-based, mouse. The method, then: (§1) Mouse embryonic fibroblast (MEF) cells used in this study isolated from LPA1/2 double knock out (LPA2-DKO) mice {Lin, 2007 #132}. These MEF express LPA4/5/6 receptors endogenously at lower levels but completely lack LPA1/2/3 receptor subtypes. The human LPA2 receptor was reintroduced into these MEF cells by lentiviral transduction, which are designated LPA2 DKO MEF {Lin, 2007 #132}. Empty vector-transduced MEF cells, designates as EV DKO MEF, were used as a control. Cells were cultured in a DMEM supplemented with 10% v/v fetal bovine serum (FBS), 2 mM L-glutamine, 100 U/ml penicillin, and 100 μg/mL streptomycin. During serum starvation, the growth medium was replaced with DMEM containing 0.1% (w/v) BSA.
(§2) The cells were plated in 48 well plates (2×10^4 cells/well) and cultured overnight in full growth medium. Next morning the growth medium was replaced by serum-free starvation medium and cells were pretreated for 1 hour with LPA (1 or 3 μM), compound 5b or 7b (1, 3 or 10 μM). Apoptosis was elicited by 1.7 μM Adriamycin in vector and LPA2 transduced MEF cells. Caspase 3, 7, 8, 9 activity and DNA fragmentation were measured to assess apoptosis 5 h after Adriamycin exposure.
DNA fragmentation was quantified by using the Cell Death Detection ELISA assay kit (Roche Diagnostics, Penzberg, Germany). 20 μl cell lysate was incubated with the anti-histone-biotin anti-DNA-peroxidase-conjugated antibody in a 96-well streptavidin-coated plate with shaking at RT for 2 h. After washing the wells three-times with the incubation buffer, 100 μl/well 2,2′-azino-di(3-ethylbenzthiazolin-sulfonate) substrate was added and the absorbance was measured at 405 nm. Protein concentration was measured using BCA Protein Assay Kit (Thermo Fisher Scientific Inc., Rockford, Ill.). DNA fragmentation was expressed as absorbance units/mg protein. LPA was used as a positive control in all experiments.

Assay [3] relates to LPA2 DKO MEF cells. The experiment in a line: Adriamycin-induced caspase 3/7 activation in LPA2 DKO MEF and EV DKO MEF cells. Format: cell-based, mouse. Particulars: 1-3 μM, 1 h before Adriamycin. The method, then:
as §1, §2
To measure caspase activation the cells were lysed in 50 μl Caspase-Glow® reagent (Caspase 3/7, 8, 9 Promega, Madison, Wis.). The cells were shaken with the caspase reagent for 30 min at room temperature (RT). After 30 min, the luminescence was measured using a BioTek (Winooski, Vt.) plate reader. The mean caspase activity in triplicates/experimental group±SD was calculated. LPA was used as a positive control in all experiments.

Assay [4] addresses T1, LPA2. The experiment in a line: Fura-2AM Ca2+ mobilization in LPA2 DKO MEF cells. Further details: expressed in transfected cells; host or cells: mouse embryonic fibroblasts from LPA1/2 double-knockout mice, lentiviral transduction. Format: cell-based. Particulars: for EC50: DKO MEF; for Emax: MEF. The method, then:
(§3) Fluorescence was read every 3.42 seconds for a total of 70 seconds at Ex/Emλ of 340/510 nm and 380/510 nm. Data (relative fluorescence) was then recorded as a mean fluorescence ratio value of the triplicates for each concentration. Graph Pad Prism version 5.0a was then used to fit a non-linear regression curve in a variable slope model (A) to determine the EC50, Emax, and curve fit (R^2)(B).
as §1, §3

This is an account of results in patent US9056835B2, “LPA2 receptor-specific benzoic acid derivatives” (University of Tennessee Research Foundation, priority 2012, dated 2015).

T1 sequence (Q9HBW0 whole entry): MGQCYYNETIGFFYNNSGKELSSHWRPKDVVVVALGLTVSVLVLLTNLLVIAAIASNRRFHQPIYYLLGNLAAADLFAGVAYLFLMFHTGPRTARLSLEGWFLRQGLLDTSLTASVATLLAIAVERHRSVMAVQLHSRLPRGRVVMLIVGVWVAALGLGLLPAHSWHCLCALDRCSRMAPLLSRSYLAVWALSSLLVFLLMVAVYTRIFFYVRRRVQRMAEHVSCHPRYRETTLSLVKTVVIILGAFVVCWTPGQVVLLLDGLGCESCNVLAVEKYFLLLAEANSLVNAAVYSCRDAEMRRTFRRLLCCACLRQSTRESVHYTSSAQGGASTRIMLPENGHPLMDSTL

For the compound `COc1ccc(C(=O)O)c(S(=O)(=O)NCCCCN2C(=O)c3cccc4cccc(c34)C2=O)c1` [Compound 7c, 2-(N-(4-(1,3-dioxo-1H-benzo[de]isoquinolin-2(3H)-yl)butyl)sulfamoyl)-4-methoxybenzoic acid], the 50% effective concentration (EC50) at LPA2 [1] is above 10 µM.

As for `O=C(O)c1ccccc1S(=O)(=O)NCCCN1C(=O)c2cccc3cccc(c23)C1=O` [Compound 5a, 2-[3-(1,3-Dioxo-1H,3H-benzo[de]isoquinolin-2-yl)propylsulfamoyl]benzoic acid], the “mortality by day 20” value in the assay on C57BL/6 mice is reported as “significantly reduced mortality”. The “protection from DNA fragmentation” value in the assay with LPA2 DKO MEF cells [2] (EV DKO MEF cells) was “no protection”. The “reduction of DNA fragmentation” value in the assay with LPA2 DKO MEF cells [2] (LPA2 DKO MEF, 10 μM, 60 min pretreatment, Adriamycin) was around 50%. The “protection from Adriamycin induced DNA fragmentation” value with LPA2 DKO MEF cells [2] (LPA2 transduced cells, 3 μM) was “selectively protected”. The EC50 on LPA2 [1] is 2.2 µM. Moreover, the “caspase-3/7 activation (apoptosis)” value in the assay on LPA2 DKO MEF cells [3] (EV DKO MEF) is recorded as “not in EV DKO MEF cells”; in the assay on LPA2 DKO MEF cells [3] (LPA2 DKO MEF), “significantly reduced apoptosis”.

In the case of `O=C(O)c1ccccc1S(=O)(=O)NCCCCN1C(=O)c2cccc3cccc(c23)C1=O` [Compound 5b, 2-[4-(1,3-Dioxo-1H,3H-benzo[de]isoquinolin-2-yl)butylsulfamoyl]benzoic acid], on LPA2 [1], the Emax was 100% and the EC50 turned out to be 0.5 µM. Also, at LPA2 [4], the EC50 worked out at 0.5 µM and the Emax worked out at 100%.

On to `O=C(O)c1ccc(Br)cc1S(=O)(=O)NCCCCN1C(=O)c2cccc3cccc(c23)C1=O` [Compound 7b, 4-bromo-2-(N-(4-(1,3-dioxo-1H-benzo[de]isoquinolin-2(3H)-yl)butyl)sulfamoyl) benzoic acid], for which the “mortality by day 20” value with C57BL/6 mice is “ineffective”. The Emax at LPA2 [1] and at LPA2 [4] was 100% each time. The values for the EC50 on LPA2 [1] and on LPA2 [4] were 1 µM and 0.4 µM, respectively. Besides, the “caspase-3/7 activation (apoptosis)” value in the assay with LPA2 DKO MEF cells [3] (EV DKO MEF) is given as “not in EV DKO MEF cells”; in the assay on LPA2 DKO MEF cells [3] (LPA2 DKO MEF), “significantly reduced apoptosis”.

Consider `O=C(O)c1ccccc1S(=O)(=O)NCCCCCN1C(=O)c2cccc3cccc(c23)C1=O` [Compound 5c], for which, at LPA2 [1], the Emax worked out at 100% and the EC50 was 1.2 µM.

On to `O=C(O)c1ccc([N+](=O)[O-])cc1S(=O)(=O)NCCCCN1C(=O)c2cccc3cccc(c23)C1=O` [Compound 7a, 2-(N-(4-(1,3-dioxo-1H-benzo[de]isoquinolin-2(3H)-yl)butyl)sulfamoyl)-4-nitrobenzoic acid], for which the “mortality by day 20” value with C57BL/6 mice is “significantly reduced mortality”. For the same compound, the EC50 on LPA2 [1] and at LPA2 [4] was above 10 µM each time.

On to `O=C(O)c1ccc2c(c1)S(=O)(=O)N(CCCCN1C(=O)c3cccc4cccc(c34)C1=O)C2=O` [Compound 9, 2-(4-(1,3-dioxo-1H-benzo[de]isoquinolin-2(3H)-yl)butyl)-3-oxo-2,3-dihydrobenzo[d]isothiazole-6-carboxylic acid 1,1-dioxide], for which, at LPA2 [1], the Emax stood at 75% and the EC50 was 3.6 µM.
